Values belong to the compound of their own block, whether it stands above or below them.
Assays:
[1] = target: T1, Melanin-concentrating hormone receptor 1 (Homo sapiens, UniProt Q99705); assay: Binding affinity to MCHR1 receptor by cell-based assay
Rattus norvegicus [2] = assay: Antiobesity activity in obese rat assessed as reduction in body weight at 30 mg/kg, po measured on day 29; format: functional; parameters: scale not given: the % may be the effect or the level left
Rattus norvegicus [3] = assay: Antiobesity activity in obese rat assessed as reduction in body weight at 3 mg/kg, po measured on day 29; format: functional; parameters: scale not given: the % may be the effect or the level left
[4] = Displacement of [Phe13, [125I]Tyr19]-MCH from human MCHR1 receptor E4Q/A5T mutant expressed in HEK 293 cell membranes by scintillation counter; details: hek293
[5] = target: T1, Melanin-concentrating hormone receptor 1; assay: Displacement of [125I]-MCH from human MCHR1 receptor expressed in CHO-K1 cell membranes after 2 hrs by scintillation proximity assay

T1 sequence (Q99705 whole entry): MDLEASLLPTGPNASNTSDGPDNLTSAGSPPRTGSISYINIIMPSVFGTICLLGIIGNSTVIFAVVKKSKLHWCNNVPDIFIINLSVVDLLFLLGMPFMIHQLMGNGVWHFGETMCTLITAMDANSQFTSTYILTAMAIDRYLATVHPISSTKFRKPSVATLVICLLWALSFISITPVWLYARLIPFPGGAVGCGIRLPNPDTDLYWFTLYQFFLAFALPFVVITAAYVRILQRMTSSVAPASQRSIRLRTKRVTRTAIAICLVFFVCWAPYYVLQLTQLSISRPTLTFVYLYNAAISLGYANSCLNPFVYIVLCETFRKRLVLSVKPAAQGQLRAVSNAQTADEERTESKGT

Activity [1]: 50 nM
SMILES: Cc1ccc(/C=C/C(=O)Nc2ccc3nc(N4CCN(C)CC4)cc(C)c3c2)cc1

SMILES: COc1cc(-n2cnc3cc(-c4ccc(Cl)cc4)sc3c2=O)ccc1OCC1(OC(=O)CN)CC(F)(F)C1
Activity (Rattus norvegicus [2]): 10.2%
Activity (Rattus norvegicus [3]): 10.2%

Activity [1]: 50 nM
SMILES: COc1ccc(/C=C/C(=O)Nc2ccc3nc(N4CCOCC4)cc(C)c3c2)cc1

SMILES: COc1cc(-n2cnc3cc(-c4ccc(Cl)cc4)sc3c2=O)ccc1OC[C@H](O)C1CC1
Ki [4]: 18 nM

SMILES: COc1cc(-n2cnc3cc(-c4ccc(Cl)cc4)sc3c2=O)ccc1OC[C@H](OP(=O)(O)O)C1CC1 [BMS-830216]
Activity (Rattus norvegicus [2]): 7.8%
Activity (Rattus norvegicus [3]): 7.8%

IC50 [5]: 10 nM
SMILES: CN(C)CC1CCc2cc(NC(=O)Nc3ccc(Oc4ccccc4)cc3)ccc2C1 (centres undefined)

SMILES: COc1cc(-n2cnc3cc(-c4ccc(Cl)cc4)sc3c2=O)ccc1OCC1(O)CC(F)(F)C1
Ki [4]: 10 nM

Reference: ChEMBL document CHEMBL2146433, “Melanin concentrating hormone receptor 1 (MCHR1) antagonists-Still a viable approach for obesity treatment?” (Bioorg Med Chem Lett, 2012)
